This is an account of results in patent US12037583B2, “Compositions and methods for immunooncology” (Novartis AG, priority 2015, dated 2024).

For the data set, the system named is PDCD1. The experiment in a line: NGS editing of PDCD1 by dgRNA in HEK cells stably expressing Cas9.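 Further: dgRNA lipofected into Cas9-expressing HEK cells, lysed after 24 h, target amplicon sequenced, editing = reads carrying insertions or deletions as percent of all reads including wild type.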 The format is cell-based, human. The following applies: at least 3 experiments.
Description: Transfection of Cas9GFP-expressing HEK293 cells (HEK-293_Cas9GFP) was used for primary screening of target specific crRNAs. […] Selected crRNAs were chemically synthesized and delivered in a 96 well format. HEK-293-Cas9GFP cells were transfected with target crRNAs comprising a flagpole region of SEQ ID NO: 6607 in a 1:1 ratio with stock trRNA of SEQ ID NO: 6660. The transfection was mediated using lipofection technology according to manufacturer's protocol (DharmaFECT Duo, GE LifeSciences; or RNAiMax, LifeTechnologies). Transfected cells were lysed 24 h following lipofection and editing (e.g., cleavage) was detected within lysates with the T7E1 assay and/or next generation sequencing (NGS; below).
PCR primers were first designed around the target site, and the genomic area of interest PCR amplified. Additional PCR was performed according to manufacturer's protocols (Illumina) to add the necessary chemistry for sequencing. The amplicons were then sequenced on an Illumina MiSeq instrument. The reads were then aligned to the human reference genome (e.g., hg38) after eliminating those having low quality scores. From the resulting files containing the reads mapped to the reference genome (BAM files), reads which overlap the target region of interest were selected and the number of wild type reads versus the number of reads which contain an insertion or deletion was calculated. The editing percentage was then defined as the total number of reads with insertions or deletions over the total number of reads, including wild type. To determine the pattern of insertions and/or deletions that resulted from the edit, the aligned reads with indels were selected and the number of a reads with a given indel were summed.
Editing of CRISPR systems containing dgRNA molecules comprising targeting domains to sequences of PDCD1 were tested for editing in HEK (gRNA delivered to cells stably expressing Cas9) and CD3+ T cells (gRNA and Cas9 delivered as RNP) according to the methods described herein.
All mean editing % are as measured by NGS and are based on at least 3 experiments.
“CR000852: dgRNA targeting domain to PDCD1 (guide GUUGGAGAAGCUGCAGGUGA; targeting domain within dual guide RNA, chemistry not given here, further chemistry not given here; listed as Homo sapiens)”: the “HEK (NGS) % Editing Mean” value came to 72%.
The figure for “CR000874: dgRNA targeting domain to PDCD1 (guide GCGUGACUUCCACAUGAGCG; targeting domain within dual guide RNA, chemistry not given here, further chemistry not given here; listed as Homo sapiens)” is 47%.
For “CR000872: dgRNA targeting domain to PDCD1 (guide AUGUGGAAGUCACGCCCGUU; targeting domain within dual guide RNA, chemistry not given here, further chemistry not given here; listed as Homo sapiens)”, the “HEK (NGS) % Editing Mean” value is 26%.
Turning to “CR000917: dgRNA targeting domain to PDCD1 (guide AAAAGAGUGAGACUCACCAG; targeting domain within dual guide RNA, chemistry not given here, further chemistry not given here; listed as Homo sapiens)”, the “HEK (NGS) % Editing Mean” value amounted to 43%.
The figure for “CR000824: dgRNA targeting domain to PDCD1 (guide UCAGGCGGAGGUGAGCGGAA; targeting domain within dual guide RNA, chemistry not given here, further chemistry not given here; listed as Homo sapiens)” is 54%; for “CR000890: dgRNA targeting domain to PDCD1 (guide GCUCUCUUUGAUCUGCGCCU; targeting domain within dual guide RNA, chemistry not given here, further chemistry not given here; listed as Homo sapiens)” it is 5%.
The figure for “CR000828: dgRNA targeting domain to PDCD1 (guide CUUCUCCACUGCUCAGGCGG; targeting domain within dual guide RNA, chemistry not given here, further chemistry not given here; listed as Homo sapiens)” is 69%.
Under “CR000894: dgRNA targeting domain to PDCD1 (guide AGGGUUUGGAACUGGCCGGC; targeting domain within dual guide RNA, chemistry not given here, further chemistry not given here; listed as Homo sapiens)” stands 19%.
As to “CR000865: dgRNA targeting domain to PDCD1 (guide GCCGGGCUGGCUGCGGUCCU; targeting domain within dual guide RNA, chemistry not given here, further chemistry not given here; listed as Homo sapiens)”, the “HEK (NGS) % Editing Mean” value is 4%.
As to “CR000893: dgRNA targeting domain to PDCD1 (guide AGAGCCUGCGGGCAGAGCUC; targeting domain within dual guide RNA, chemistry not given here, further chemistry not given here; listed as Homo sapiens)”, the “HEK (NGS) % Editing Mean” value turned out to be 10%.
Under “CR000864: dgRNA targeting domain to PDCD1 (guide CCCGAGGACCGCAGCCAGCC; targeting domain within dual guide RNA, chemistry not given here, further chemistry not given here; listed as Homo sapiens)” stands 7%; under “CR000895: dgRNA targeting domain to PDCD1 (guide CACCAGGGUUUGGAACUGGC; targeting domain within dual guide RNA, chemistry not given here, further chemistry not given here; listed as Homo sapiens)”, 49%; under “CR000879: dgRNA targeting domain to PDCD1 (guide AGGGCCCGGCGCAAUGACAG; targeting domain within dual guide RNA, chemistry not given here, further chemistry not given here; listed as Homo sapiens)”, 68%.
Under “CR000889: dgRNA targeting domain to PDCD1 (guide CUCUCUUUGAUCUGCGCCUU; targeting domain within dual guide RNA, chemistry not given here, further chemistry not given here; listed as Homo sapiens)” stands 3%; under “CR000830: dgRNA targeting domain to PDCD1 (guide UGGAGAAGGCGGCACUCUGG; targeting domain within dual guide RNA, chemistry not given here, further chemistry not given here; listed as Homo sapiens)”, 57%; under “CR000827: dgRNA targeting domain to PDCD1 (guide GCUCACCUCCGCCUGAGCAG; targeting domain within dual guide RNA, chemistry not given here, further chemistry not given here; listed as Homo sapiens)”, 39%.
As for “CR000886: dgRNA targeting domain to PDCD1 (guide UGAUCUGCGCCUUGGGGGCC; targeting domain within dual guide RNA, chemistry not given here, further chemistry not given here; listed as Homo sapiens)”, the “HEK (NGS) % Editing Mean” value is given as 2%.
Under “CR000850: gRNA targeting domain to PDCD1, CCUGCUCGUGGUGACCGAAG (SEQ ID NO: 5746) (targeting domain within guide RNA, chemistry not given here, further chemistry not given here; listed as Homo sapiens)” stands 55%.
“CR000878: dgRNA targeting domain to PDCD1 (guide ACAUGAGCGUGGUCAGGGCC; targeting domain within dual guide RNA, chemistry not given here, further chemistry not given here; listed as Homo sapiens)”: the “HEK (NGS) % Editing Mean” value came out at 1%.
The figure for “CR000829: dgRNA targeting domain to PDCD1 (guide CAGUGGAGAAGGCGGCACUC; targeting domain within dual guide RNA, chemistry not given here, further chemistry not given here; listed as Homo sapiens)” is 68%; for “CR000899: dgRNA targeting domain to PDCD1 (guide CGACACCAACCACCAGGGUU; targeting domain within dual guide RNA, chemistry not given here, further chemistry not given here; listed as Homo sapiens)” it is 5%; for “CR000887: dgRNA targeting domain to PDCD1 (guide CUCUUUGAUCUGCGCCUUGG; targeting domain within dual guide RNA, chemistry not given here, further chemistry not given here; listed as Homo sapiens)” it is 46%.
As for “CR000848: dgRNA targeting domain to PDCD1 (guide CCCUGCUCGUGGUGACCGAA; targeting domain within dual guide RNA, chemistry not given here, further chemistry not given here; listed as Homo sapiens)”, the “HEK (NGS) % Editing Mean” value worked out at 65%.
Regarding “CR000840: dgRNA targeting domain to PDCD1 (guide GGGCGGUGCUACAACUGGGC; targeting domain within dual guide RNA, chemistry not given here, further chemistry not given here; listed as Homo sapiens)”, the “HEK (NGS) % Editing Mean” value was found to be 59%.
With “CR000844: dgRNA targeting domain to PDCD1 (guide CGGUCACCACGAGCAGGGCU; targeting domain within dual guide RNA, chemistry not given here, further chemistry not given here; listed as Homo sapiens)”, the “HEK (NGS) % Editing Mean” value worked out at 25%.
On to “CR000882: dgRNA targeting domain to PDCD1 (guide GACAGCGGCACCUACCUCUG; targeting domain within dual guide RNA, chemistry not given here, further chemistry not given here; listed as Homo sapiens)”, for which the “HEK (NGS) % Editing Mean” value is given as 50%.
Under “CR000853: gRNA targeting domain to PDCD1, CACGAAGCUCUCCGAUGUGU (SEQ ID NO: 5749) (targeting domain within guide RNA, chemistry not given here, further chemistry not given here; listed as Homo sapiens)” stands 33%; under “CR000919: dgRNA targeting domain to PDCD1 (guide GGAAAAGAGUGAGACUCACC; targeting domain within dual guide RNA, chemistry not given here, further chemistry not given here; listed as Homo sapiens)”, 42%.
Take “CR000835: dgRNA targeting domain to PDCD1 (guide GCCCUGGCCAGUCGUCUGGG; targeting domain within dual guide RNA, chemistry not given here, further chemistry not given here; listed as Homo sapiens)”: the “HEK (NGS) % Editing Mean” value was found to be 69%.
“CR000841: dgRNA targeting domain to PDCD1 (guide CGGUGCUACAACUGGGCUGG; targeting domain within dual guide RNA, chemistry not given here, further chemistry not given here; listed as Homo sapiens)”: the “HEK (NGS) % Editing Mean” value was found to be 19%.
